Molecular target: T1, recombinant guanylate cyclase reporter cell line (Rattus norvegicus, UniProt P19686+P20595)
T1 construct: expressed in transfected cells
T1 sequence (P20595 1-619): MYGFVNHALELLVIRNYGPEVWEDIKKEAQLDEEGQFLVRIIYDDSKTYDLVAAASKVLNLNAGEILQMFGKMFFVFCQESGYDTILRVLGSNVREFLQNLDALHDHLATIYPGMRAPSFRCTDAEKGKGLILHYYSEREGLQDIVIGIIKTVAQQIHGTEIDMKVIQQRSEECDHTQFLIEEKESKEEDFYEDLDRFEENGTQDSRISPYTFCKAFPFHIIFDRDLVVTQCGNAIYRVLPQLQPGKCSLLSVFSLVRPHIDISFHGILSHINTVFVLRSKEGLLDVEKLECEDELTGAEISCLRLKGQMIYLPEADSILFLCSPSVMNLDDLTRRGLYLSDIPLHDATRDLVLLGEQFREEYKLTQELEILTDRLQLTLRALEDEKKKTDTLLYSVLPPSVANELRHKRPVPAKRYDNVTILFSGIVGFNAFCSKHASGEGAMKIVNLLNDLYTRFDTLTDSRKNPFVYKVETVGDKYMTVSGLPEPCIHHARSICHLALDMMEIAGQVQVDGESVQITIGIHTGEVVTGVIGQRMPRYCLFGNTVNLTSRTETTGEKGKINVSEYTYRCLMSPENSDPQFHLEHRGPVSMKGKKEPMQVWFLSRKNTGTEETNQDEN
T1 sequence (P19686 1-690): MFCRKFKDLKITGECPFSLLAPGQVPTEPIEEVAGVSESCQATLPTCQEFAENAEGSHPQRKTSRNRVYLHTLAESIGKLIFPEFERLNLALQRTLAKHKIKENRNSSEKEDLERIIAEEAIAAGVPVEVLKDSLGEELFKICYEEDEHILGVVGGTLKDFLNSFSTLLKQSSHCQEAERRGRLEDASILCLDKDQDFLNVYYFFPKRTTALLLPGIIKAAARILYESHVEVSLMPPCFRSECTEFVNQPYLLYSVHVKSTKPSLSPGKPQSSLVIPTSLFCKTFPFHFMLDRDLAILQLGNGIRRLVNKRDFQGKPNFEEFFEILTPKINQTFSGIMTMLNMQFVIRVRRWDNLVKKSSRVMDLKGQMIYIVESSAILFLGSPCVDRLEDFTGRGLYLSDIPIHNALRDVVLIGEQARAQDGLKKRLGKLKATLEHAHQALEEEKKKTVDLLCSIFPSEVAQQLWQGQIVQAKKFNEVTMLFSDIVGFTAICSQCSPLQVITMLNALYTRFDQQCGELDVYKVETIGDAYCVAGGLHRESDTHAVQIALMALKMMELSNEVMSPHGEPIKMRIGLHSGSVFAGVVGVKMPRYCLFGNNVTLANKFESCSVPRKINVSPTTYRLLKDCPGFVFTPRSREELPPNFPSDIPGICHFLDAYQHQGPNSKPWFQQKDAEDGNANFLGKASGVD
Assay: Action on recombinant guanylate cyclase reporter cell line
Type: cell-based
Settings: representative MEC values
Experimental: B-2. Action on Recombinant Guanylate Cyclase Reporter Cell Line
The cellular action of the compounds according to the invention is determined on a recombinant guanylate cyclase reporter cell line, as described in F. Wunder et al., Anal. Biochem. 339, 104-112 (2005).
Representative MEC values (MEC=minimal effective concentration) for the compounds according to the invention are shown in the following table: […]

COC(=O)[C@H]1CC[C@H](CNC(=O)c2c(C)nc3c(OCc4c(F)cccc4F)cc(C)cn23)CC1 [Example 24, Methyl trans-4-{[({8-[(2,6-difluorobenzyl)oxy]-2,6-dimethylimidazo[1,2-a]pyridin-3-yl}carbonyl)-amino]methyl}cyclohexanecarboxylate]
MEC (minimal effective concentration): 0.1 µM

Reference: US8796305B2 (Bayer Pharma Aktiengesellschaft, priority 2012, dated 2014)
